The source made the active and inactive calls.
How the values were obtained:
[1] = cells; type: functional
[2] = target: T1, Rac GTPase-activating protein 1 (Homo sapiens, UniProt Q9H0H5); assay: MgcRacGAP GTPase-activating activity inhibitors, confirmation, biochemical, ADP Hunter fluorescence, primary and confirmatory (AID 624330); type: functional
T1 sequence (Q9H0H5 whole entry): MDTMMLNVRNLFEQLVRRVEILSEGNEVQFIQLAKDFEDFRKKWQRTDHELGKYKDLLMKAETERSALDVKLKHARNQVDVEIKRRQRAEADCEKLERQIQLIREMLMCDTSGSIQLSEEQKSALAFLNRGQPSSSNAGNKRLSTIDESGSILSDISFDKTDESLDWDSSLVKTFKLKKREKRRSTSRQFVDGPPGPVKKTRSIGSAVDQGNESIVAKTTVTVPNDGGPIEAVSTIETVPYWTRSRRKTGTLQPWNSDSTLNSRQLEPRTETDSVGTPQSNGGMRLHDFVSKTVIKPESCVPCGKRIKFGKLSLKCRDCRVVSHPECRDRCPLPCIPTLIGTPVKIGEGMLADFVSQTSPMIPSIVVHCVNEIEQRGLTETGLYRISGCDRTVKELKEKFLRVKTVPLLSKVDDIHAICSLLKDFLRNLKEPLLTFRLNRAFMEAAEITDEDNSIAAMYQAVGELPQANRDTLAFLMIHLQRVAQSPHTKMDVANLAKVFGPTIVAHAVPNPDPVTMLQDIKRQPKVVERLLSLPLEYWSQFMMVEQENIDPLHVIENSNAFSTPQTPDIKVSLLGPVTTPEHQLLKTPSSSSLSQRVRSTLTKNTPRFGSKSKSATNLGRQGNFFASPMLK

[3] = tested on: Streptococcus sp. 'group A'; assay: growth inhibition of control SK(-) GAS strain, dose response, counter-screen for streptokinase expression inhibitor project, luminescence, kanamycin, BacTiterGlo, confirmation (AID 1900); type: functional, organism-based
[4] = target: T2, Streptokinase A (Streptococcus pyogenes serotype M1, UniProt P10520); assay: S. pyogenes streptokinase expression inhibitors, potency, dose response, plasminogen activation absorbance, OD405 (AID 1914); type: functional, Streptococcus pyogenes M1 GAS;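 note: secreted streptokinase activity via plasminogen activation per viability signal from cell pellet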
T2 sequence (P10520 whole entry): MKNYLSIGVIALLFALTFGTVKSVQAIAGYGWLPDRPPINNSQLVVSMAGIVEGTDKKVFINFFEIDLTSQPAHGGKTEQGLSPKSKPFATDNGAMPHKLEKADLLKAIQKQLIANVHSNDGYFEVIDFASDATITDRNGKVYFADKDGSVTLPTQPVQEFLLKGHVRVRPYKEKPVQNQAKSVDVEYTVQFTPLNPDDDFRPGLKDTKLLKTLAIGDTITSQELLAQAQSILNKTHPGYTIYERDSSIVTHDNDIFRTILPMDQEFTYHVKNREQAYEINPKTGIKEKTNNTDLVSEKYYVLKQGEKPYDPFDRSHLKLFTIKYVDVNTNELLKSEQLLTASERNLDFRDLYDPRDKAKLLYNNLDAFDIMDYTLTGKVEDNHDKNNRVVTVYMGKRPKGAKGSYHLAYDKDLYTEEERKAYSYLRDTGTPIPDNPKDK

[5] = tested on: Streptococcus; assay: Group A Streptococcus viability loss, dose response, counter-screen for streptokinase expression inhibitor project, luminescence, BacTiterGlo (AID 1915); type: functional, organism-based;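 note: potency for reduction of bacterial viability or growth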
[6] = target: Cytochrome P450 2C19 (Homo sapiens, UniProt P33261); assay: Cytochrome panel assay with activity outcomes. Panel member name: p450-cyp2c19 Compounds with AC50 equal or less than 10 uM are considered active; type: functional; conditions: read-out: AC50
Sequence of Cytochrome P450 2C19 (P33261 whole entry): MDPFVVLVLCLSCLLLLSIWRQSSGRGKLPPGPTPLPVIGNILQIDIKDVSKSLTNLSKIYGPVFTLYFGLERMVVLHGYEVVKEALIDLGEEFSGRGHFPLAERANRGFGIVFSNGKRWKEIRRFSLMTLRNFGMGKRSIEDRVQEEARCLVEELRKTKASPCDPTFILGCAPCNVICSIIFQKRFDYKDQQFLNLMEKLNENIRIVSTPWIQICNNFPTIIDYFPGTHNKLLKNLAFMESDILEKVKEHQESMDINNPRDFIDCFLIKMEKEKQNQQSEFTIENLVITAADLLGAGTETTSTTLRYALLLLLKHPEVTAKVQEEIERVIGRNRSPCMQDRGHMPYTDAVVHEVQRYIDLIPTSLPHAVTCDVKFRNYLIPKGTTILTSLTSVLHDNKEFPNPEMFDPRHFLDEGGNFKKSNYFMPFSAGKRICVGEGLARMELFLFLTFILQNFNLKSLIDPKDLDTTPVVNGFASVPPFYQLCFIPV

[7] = target: Cytochrome P450 2C9 (Homo sapiens, UniProt P11712)
Sequence of Cytochrome P450 2C9 (P11712 whole entry): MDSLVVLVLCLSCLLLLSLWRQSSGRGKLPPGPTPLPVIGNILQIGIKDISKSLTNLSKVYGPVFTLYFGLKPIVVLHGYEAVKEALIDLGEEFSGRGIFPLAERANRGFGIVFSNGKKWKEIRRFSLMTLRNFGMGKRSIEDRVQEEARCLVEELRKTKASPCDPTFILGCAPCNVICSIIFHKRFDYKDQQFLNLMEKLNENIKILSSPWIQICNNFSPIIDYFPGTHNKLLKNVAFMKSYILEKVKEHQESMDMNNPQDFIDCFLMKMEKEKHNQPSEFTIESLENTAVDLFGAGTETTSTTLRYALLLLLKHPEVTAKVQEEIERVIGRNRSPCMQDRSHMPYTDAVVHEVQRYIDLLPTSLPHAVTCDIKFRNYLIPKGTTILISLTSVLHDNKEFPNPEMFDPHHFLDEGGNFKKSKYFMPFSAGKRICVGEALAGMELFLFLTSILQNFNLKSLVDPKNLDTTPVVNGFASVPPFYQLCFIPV

[8] = target: Cytochrome P450 2D6 (Homo sapiens, UniProt P10635)
Sequence of Cytochrome P450 2D6 (P10635 whole entry): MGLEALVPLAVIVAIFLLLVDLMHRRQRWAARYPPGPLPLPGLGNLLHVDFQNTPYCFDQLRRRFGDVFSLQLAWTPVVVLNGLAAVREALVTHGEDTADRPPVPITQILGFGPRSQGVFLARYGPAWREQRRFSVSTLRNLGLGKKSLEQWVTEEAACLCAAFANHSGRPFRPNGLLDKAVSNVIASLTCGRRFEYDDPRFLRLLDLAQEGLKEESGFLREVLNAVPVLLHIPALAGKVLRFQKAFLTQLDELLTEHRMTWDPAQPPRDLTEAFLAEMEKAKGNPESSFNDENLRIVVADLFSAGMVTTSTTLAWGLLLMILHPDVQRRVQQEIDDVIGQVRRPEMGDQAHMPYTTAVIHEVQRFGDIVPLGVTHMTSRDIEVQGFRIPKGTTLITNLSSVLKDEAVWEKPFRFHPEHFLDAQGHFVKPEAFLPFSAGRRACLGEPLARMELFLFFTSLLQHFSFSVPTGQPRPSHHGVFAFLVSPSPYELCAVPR

[9] = target: Cytochrome P450 3A4 (Homo sapiens, UniProt P08684);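 note: CYP3A4 tested as one member of a cytochrome P450 panel screen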
Sequence of Cytochrome P450 3A4 (P08684 whole entry): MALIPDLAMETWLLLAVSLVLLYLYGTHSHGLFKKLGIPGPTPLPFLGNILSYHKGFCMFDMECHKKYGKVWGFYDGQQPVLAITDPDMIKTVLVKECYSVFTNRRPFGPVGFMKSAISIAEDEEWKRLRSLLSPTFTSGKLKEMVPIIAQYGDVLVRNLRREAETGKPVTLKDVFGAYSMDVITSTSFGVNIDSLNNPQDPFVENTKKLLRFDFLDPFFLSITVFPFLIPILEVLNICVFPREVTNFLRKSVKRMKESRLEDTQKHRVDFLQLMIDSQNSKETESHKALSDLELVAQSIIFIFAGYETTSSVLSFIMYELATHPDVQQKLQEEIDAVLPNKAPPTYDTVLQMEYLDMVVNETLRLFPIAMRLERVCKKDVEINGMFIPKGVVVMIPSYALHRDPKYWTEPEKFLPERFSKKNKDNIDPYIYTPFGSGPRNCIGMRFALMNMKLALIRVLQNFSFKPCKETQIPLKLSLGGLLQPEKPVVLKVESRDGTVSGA

[10] = inhibitors of intracellular T. cruzi replication, confirmation, NIH3T3 host cells, beta-gal luminescence (AID 2044); type: functional, cell-based;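 note: intracellular parasites grown in NIH/3T3 mouse fibroblasts as host cells; luminescent beta-galactosidase reporter signal from transgenic T. cruzi replicating inside host cells; inhibitors lower the luminescence signal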
[11] = cytotoxicity toward NIH3T3 fibroblasts, dose response, counter-screen, cell-based, ATP luminescence, mouse fibroblasts (AID 2010); type: functional;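 note: cells exposed to compound for about 90 hours before reading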
[12] = target: T3, Corticotropin-releasing factor receptor 2/Corticotropin-releasing factor-binding protein (Homo sapiens, UniProt P24387+Q13324); assay: Dose Response confirmation of uHTS hits for small molecule antagonists of the CRF-binding protein and CRF-R2 receptor complex.; type: functional; conditions: read-out: IC50_Mean
T3 sequence (Q13324 whole entry): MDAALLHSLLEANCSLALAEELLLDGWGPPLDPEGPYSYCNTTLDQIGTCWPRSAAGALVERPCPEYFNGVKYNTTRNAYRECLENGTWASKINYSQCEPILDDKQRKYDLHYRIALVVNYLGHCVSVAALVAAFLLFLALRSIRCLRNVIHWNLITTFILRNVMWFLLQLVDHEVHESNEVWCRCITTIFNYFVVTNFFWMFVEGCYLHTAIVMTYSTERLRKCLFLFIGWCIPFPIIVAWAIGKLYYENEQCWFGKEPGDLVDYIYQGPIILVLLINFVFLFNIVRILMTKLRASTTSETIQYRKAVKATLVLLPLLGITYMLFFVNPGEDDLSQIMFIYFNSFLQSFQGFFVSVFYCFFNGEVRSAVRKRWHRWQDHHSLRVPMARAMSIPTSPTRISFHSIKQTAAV
T3 sequence (P24387 whole entry): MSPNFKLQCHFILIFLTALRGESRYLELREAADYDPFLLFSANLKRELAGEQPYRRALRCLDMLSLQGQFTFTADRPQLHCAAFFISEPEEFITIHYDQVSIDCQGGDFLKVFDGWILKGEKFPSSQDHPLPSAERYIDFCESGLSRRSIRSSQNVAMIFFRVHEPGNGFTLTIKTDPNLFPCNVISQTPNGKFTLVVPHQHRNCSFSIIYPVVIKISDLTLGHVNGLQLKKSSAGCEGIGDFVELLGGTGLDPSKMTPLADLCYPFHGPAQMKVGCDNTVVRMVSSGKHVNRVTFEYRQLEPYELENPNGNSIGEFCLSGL

[13] = target: T3, Corticotropin-releasing factor receptor 2/Corticotropin-releasing factor-binding protein; assay: activators of CRF receptor 2 with binding protein – uHTS hits, confirmation (AID 602473); type: functional; conditions: read-out: EC50_Mean

In the case of `O=C(COc1ccc(Nc2ccccc2)cc1)OCC(=O)N1CCCCC1`, the IC50 [1] is reported as 2.49 µM (active) and the IC50 [2] is reported as 98.2 µM (active).

In the case of `Cc1cc(C)c(OCCCCN2CCC(C)CC2)c(Br)c1`, the IC50 [2] is reported as 212 µM (active).

For `OC(COc1cccc2ccccc12)CN1CCN(c2cccc(Cl)c2)CC1` (centres undefined), the EC50 [3] was 15.5 µM (active), the EC50 [4] was 20.1 µM (active) and the EC50 [5] was 31 µM (active).

In the case of `COc1ccc(-c2cnnc(CCCn3ccnc3-c3ccccc3)n2)cc1`, the AC50 [6] is reported as 7.94 µM (inconclusive) and the AC50 [7] is reported as 0.0126 µM (inconclusive).

In the case of `CC(=O)n1c(COS(C)(=O)=O)nc2ccccc21`, the AC50 [8] is reported as 5.01 µM (inconclusive) and the AC50 [9] is reported as 3.16 µM (inconclusive).

In the case of `Clc1cc(Br)ccc1OCCOCCN1CCCC1`, the EC50 [10] is reported as 1.46 µM (active), the EC50 [11] is reported as > 60 µM (not active) and the IC50 [2] is reported as 135 µM (active).

With `O=S(=O)(Nc1nc2ccccc2nc1Cl)c1ccc2ccccc2c1` the EC50 [3] was 9.62 µM (active), the EC50 [4] was 15.1 µM (active) and the EC50 [5] was > 150 µM (not active).

For `Cc1cc(OCc2ccc([N+](=O)[O-])cc2)c2c3c(c(=O)oc2c1)CCCC3`, the AC50 [8] was 3.16 µM (inconclusive) and the AC50 [9] was 2.82 µM (inconclusive).

In the case of `CCC[C@@H]1C[C@@]1(CCC)C(NS(=O)(=O)c1cccc2cccnc12)c1ccc(Cl)cc1` (some centres undefined), the AC50 [8] is reported as 39.8 µM (inconclusive).

For `O=C(CCCC(=O)c1ccccc1)Nc1ccc(O)cc1`, the IC50 [2] was 15.8 µM (active).

For `Fc1cccc2sc(N3CCCC3)nc12`, the IC50 [1] was > 50 µM (active).

In the case of `CC1CCN(CCc2nc3cc(NC(=O)NC4CCCCC4)ccc3n2C)CC1`, the AC50 [8] is reported as 25.1 µM (inconclusive).

With `CC(C)(C)c1ccc(OCCC(=O)OCC(=O)NC2CC2)cc1` the IC50 [1] was 48.5 µM (active).

For `CCc1ccc(N(C(=O)CNC(=O)c2cccs2)C(C(=O)NC(C)(C)C)c2cc(OC)c(OC)c(OC)c2)cc1` (centres undefined), the AC50 [6] was 0.00794 µM (inconclusive) and the AC50 [7] was 28.2 µM (inconclusive).

For `CC(=O)Nc1cccc(-c2csc(NCc3ccccc3)n2)c1`, the IC50 [2] was 65 µM (active).

For `COc1ccc(/C=C/c2ccc3cccc(O)c3n2)cc1Br`, the EC50 [3] was 0.796 µM (active), the EC50 [4] was > 150 µM (not active) and the EC50 [5] was 13.5 µM (active).

For `CCOC(=O)c1[nH]c(COC(=O)CCOc2ccccc2OC)c(C(=O)OCC)c1C`, the AC50 [8] was 15.8 µM (inconclusive).

For `N#CCSc1nc2ccc(N3CCOCC3)cc2c(=O)n1CCc1ccccc1`, the EC50 [3] was 7.19 µM (active), the EC50 [4] was > 150 µM (not active) and the EC50 [5] was 13.1 µM (active).

With `O=C(Oc1ccccc1)c1ccc(NC(=O)c2ccco2)cc1` the IC50 [1] was 4.4 µM (active), the IC50 [12] was > 47.1 µM (inactive) and the EC50 [13] was > 53 µM (inactive).

With `COc1ccc(-c2cc(=O)oc(-c3cccc(C)c3)n2)cc1` the IC50 [1] was 35.9 µM (active).

For `CCOC(=O)C(=NCCOC)NNc1cc(Cl)ccc1Cl`, the IC50 [1] was > 50 µM (active).

For `COc1ccc(OC(=O)c2cc(S(=O)(=O)N3CCCC3)ccc2Cl)cc1`, the IC50 [2] was 63 µM (active).

Reference: ChEMBL document CHEMBL1201862, “PubChem BioAssay data set” (2004)
